{"source": "patent US7772255B2", "about": "“Method of treating tumors with azaxanthones” (Supratek Pharma, Inc., priority 2005, dated 2010)", "key": {"[1]": {"system": "metastatic (Stage III-IV) breast cancer", "assay": "Amlexanox in women with metastatic breast cancer whose primary tumors are removed surgically (Example 7)", "assay_type": "in vivo, human", "details": "500 mg orally twice a day; baseline until nine months after administration and follow-up", "procedure": "In this study, 44 women with metastatic (Stage III-IV) breast cancer whose primary tumors are removed surgically are treated by orally administering 500 mg amlexanox twice a day. The total dose, per patient, is 1,000 mg daily. Baseline assessments are performed at the start of the treatment (treated group) and these baseline results are compared with repeat assessments during various follow-up periods of this treatment. The treatment is conducted for at least ten consecutive days and it is continued further until substantial progression of the disease is noted. The study, which includes treatment of all patients and their follow-up, lasts for at least nine months or until disease progression in the last patient with responding or stable disease. […] In carrying out this study, the response rate and one year survival data for each of the patients in the treated group is determined and compared with an untreated group. […] If there is a delay of the substantial progression of the disease, then treatment is stopped when it is determined that substantial progression of the disease in that patient resumes. […] One week after the first administration of amlexanox, patients are clinically evaluated (adverse event review, concomitant medication and concurrent illness) and the following laboratory evaluations are conducted: hematology, blood chemistry and urinalysis. […]"}, "[2]": {"assay": "Pharmacokinetics and bioavailability in normal mice", "assay_type": "in vivo, mouse", "details": "for AUC / Cmax / MRT / clearance / half-life / Vd / bioavailability: female; for Vd: read-out: Vss; for bioavailability: C57BL/6, plasma, po, mouse, sodium salt, read-out: Bioavailability for oral administration", "procedure": "Female C57BL/6 mice were used at 6 to 7 weeks of age. The animals were given food (Purina mouse chow, Pro Lab PMH 4018, Trademark of Agway, Syracuse, N.Y., USA) and water ad libitum. The mice were kept at five per cage under light (12 h light/dark cycle) and temperature (22±1° C.) controlled environment. The animal studies were conducted according to the “Guidelines for Care and Use of Experimental Animals”.\nAmlexanox sodium salt dosing solutions for oral administration were prepared by dissolving amlexanox sodium salt, prepared according to Example 10, in distilled water. amlexanox sodium salt dosing solutions for i.v. administration were prepared by dissolving amlexanox sodium salt, prepared according to Example 10, in isotonic solution (0.9% NaCl). Amlexanox meglumine formulation dosing solutions for oral administration were prepared by dissolving amlexanox meglumine formulation F1, prepared according to Example 12, in distilled water. Amlexanox meglumine formulation dosing solutions for i.v. administration were prepared by dissolving amlexanox meglumine formulation F1, prepared according to Example 13, in isotonic solution (0.9% NaCl). 1 mg/mL solution of amlexanox was used for dosing 10 mg/kg, and 10 mg/mL solution was used for dosing 100 mg/kg.\nAmlexanox-X dosing solutions were administered i.v. and orally in normal mice (four animals per each time point). After various time intervals (15, 30 min and 1, 3, 6 and 8 h for Amlexanox-X Na salt and 15, 30 min, 1, 2 and 6 h for Amlexanox-X+MG) post-injection, blood and major organs (liver, kidney, lung and brain) were collected. Then, blood was immediately centrifuged, and plasma was separated. The plasma and tissue samples were immediately frozen in dry ice and stored at −80° C. until further use.\nThe defrosted plasma samples were centrifuged at 2000 g for 5 min, and aliquots (10 μL) of each sample were transferred into 1.5-ml plastic tubes. The samples were diluted with PBS in various amounts of times and aliquots of 100 μL were transferred into the other 1.5-ml plastic tubes. The samples were extracted with 1 mL of 100% acetonitrile for 10 min on 180° rotator. Then, the tubes were centrifuged at 10,000 g for 15 min.\nThe supernatant was separated to glass tubes and evaporated in a stream of nitrogen at […]. until dryness. The dried samples were kept at −20° C. until HPLC analysis. The samples were reconstituted in 100 μL of mobile phase analyze before analyze by HPLC.\nThe samples were analysed by HPLC using 250×4.6 mm, Phenomenex C18 Luna, 5 micron column, 1 mL/min flow rate of mobile phase 73% of 25 mM sodium phosphate pH 7.5 and 27% acetonitrile; fluorescent deyection λexcitation=348 nm, λemission=404 nm.\nThe concentrations of amlexanox in samples were determined by comparison with calibration curve obtained from spiked mouse plasma samples using the same analytical method. The areas under the curves (AUC) of amlexanox were calculated by trapezoidal method. Main pharmacokinetic parameters of amlexanox and bioavailability if amlexanox Na salt and amlexanox with meglumine formulation are shown in Tables below."}, "[3]": {"details": "C57BL/6, iv, mouse plasma, i.v., 10 mg/kg"}, "[4]": {"details": "C57BL/6, iv, mouse plasma, i.v., 100 mg/kg"}, "[5]": {"details": "C57BL/6, mouse plasma, oral, 10 mg/kg"}, "[6]": {"details": "C57BL/6, mouse plasma, oral, 100 mg/kg"}}, "note": "Structures can show the parent of a compound that is named as a salt. Where two headings read alike, the source gives them in different places.", "data": [{"compound": "CC(C)c1ccc2oc3nc(N)c(C(=O)O)cc3c(=O)c2c1", "note": "[Amlexanox, 2-amino-7-isopropyl-1-azaxanthone-3-carboxylic acid]", "values": [{"measurement": "percentage of patients with little or no progression of the disease, compared to the non-treated group", "setting": "[1]", "result": "greater percentage of the patients in the group of patients treated with the amlexanox show little or no progression of the disease"}]}, {"compound": "CC(C)c1ccc2oc3nc(N)c(C(=O)O)cc3c(=O)c2c1", "note": "[Amlexanox (salt), 2-amino-7-isopropyl-1-azaxanthone-3-carboxylic acid sodium salt]", "values": [{"measurement": "AUC", "setting": "[2]; [3]", "result": 31.3, "unit": "µg·h/mL"}, {"measurement": "Cmax", "setting": "[2]; [3]", "result": 55.7, "unit": "µg/mL"}, {"measurement": "MRT", "setting": "[2]; [3]", "result": 0.5, "unit": "h"}, {"measurement": "clearance", "setting": "[2]; [3]", "result": 5, "unit": "mL/min/kg"}, {"measurement": "half-life", "setting": "[2]; [3]", "result": 0.4, "unit": "h"}, {"measurement": "Vd", "setting": "[2]; [3]", "result": 0.2, "unit": "L/kg"}, {"measurement": "AUC", "setting": "[2]; [4]", "result": 734, "unit": "µg·h/mL"}, {"measurement": "Cmax", "setting": "[2]; [4]", "result": 590, "unit": "µg/mL"}, {"measurement": "MRT", "setting": "[2]; [4]", "result": 1.2, "unit": "h"}, {"measurement": "clearance", "setting": "[2]; [4]", "result": 0.167, "unit": "mL/min/kg"}, {"measurement": "half-life", "setting": "[2]; [4]", "result": 0.8, "unit": "h"}, {"measurement": "Vd", "setting": "[2]; [4]", "result": 0.02, "unit": "L/kg"}, {"measurement": "bioavailability", "setting": "[2]; 10 mg/kg", "result": 61.7, "unit": "%"}, {"measurement": "bioavailability", "setting": "[2]; 100 mg/kg", "result": 41.1, "unit": "%"}, {"measurement": "AUC", "setting": "[2]; [5]", "result": 19.3, "unit": "µg·h/mL"}, {"measurement": "Cmax", "setting": "[2]; [5]", "result": 17.6, "unit": "µg/mL"}, {"measurement": "MRT", "setting": "[2]; [5]", "result": 1.6, "unit": "h"}, {"measurement": "half-life", "setting": "[2]; [5]", "result": 1.1, "unit": "h"}, {"measurement": "AUC", "setting": "[2]; [6]", "result": 302, "unit": "µg·h/mL"}, {"measurement": "Cmax", "setting": "[2]; [6]", "result": 206, "unit": "µg/mL"}, {"measurement": "MRT", "setting": "[2]; [6]", "result": 2.2, "unit": "h"}, {"measurement": "half-life", "setting": "[2]; [6]", "result": 1.5, "unit": "h"}, {"measurement": "CL", "setting": "[2]; mouse plasma, oral, 10 mg/kg", "result": 8.3, "unit": "mL/min/kg"}, {"measurement": "Vss", "setting": "[2]; mouse plasma, oral, 10 mg/kg", "result": 0.8, "unit": "L/kg"}, {"measurement": "Vss", "setting": "[2]; mouse plasma, oral, 100 mg/kg", "result": 0.07, "unit": "L/kg"}]}]}
